The values below come from article PMC6351529, “Novel carboxylate-based glycolipids: TLR4 antagonism, MD-2 binding and self-assembly properties” (Scientific Reports, 2019).

In one data set the target is T1, human MD-2 (hMD-2) (Homo sapiens, UniProt Q9Y6Y9).
T1 construct: made in house; host or cells: Pichia pastoris
T1 sequence (Q9Y6Y9 19-160): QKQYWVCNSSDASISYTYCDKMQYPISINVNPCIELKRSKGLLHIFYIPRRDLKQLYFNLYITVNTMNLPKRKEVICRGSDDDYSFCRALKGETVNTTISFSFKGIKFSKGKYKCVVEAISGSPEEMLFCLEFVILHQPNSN
Nature of the data set: Surface plasmon resonance (SPR) on immobilized hMD-2. As to conditions: 1:1 Langmuir binding model, 25 °C. The protocol: SPR experimental curve optimal fitting was obtained by assuming 1:1 ligand/MD-2 binding stoichiometry.
The binding affinity of the compounds to recombinant hMD-2 was determined using a Biacore X100 with an NTA sensor chip (Biacore, GE Healthcare, Uppsala, Sweden). Briefly, 0.5 μM hMD-2 (in 50 mM TRIS, 150 mM NaCl, 0.5% Tween 20, pH 7.5) was immobilized onto the sensor chip previously activated with 1-min. pulse of 10 mM NiSO4. First flow cell was used as a reference surface to control non-specific binding. Both flow cells were injected with the analyte (in PBS, 5% DMSO, 5% EtOH, pH 7.5) at a flow rate of 10 μL/min at 25 °C in increasing concentrations. The data were analyzed with Biacore Evaluation software. KD values were calculated by global fitting of the equilibrium binding responses from various concentrations of analytes using a 1:1 Langmuir binding model.
On the technique in general: SPR reads the build-up and loss of mass on a sensor chip optically.

Another data set has as its target T2, human TLR4 (Homo sapiens, UniProt O00206+Q9Y6Y9).
T2 construct: host or cells: HEK-Blue hTLR4 (HEK293)
In words: Inhibition of LPS-stimulated TLR4 activation in HEK293-Blue hTLR4 cells (SEAP reporter). The class given is cell-based. As to conditions: LPS 100 ng/mL, 15 min pre-incubation, 16 h, serum-free DMEM. The source says:
Synthetic monosaccharides were screened for their capacity to activate or inhibit LPS-stimulated TLR4 activation in HEK293-Blue hTLR4 cells. HEK293-Blue hTLR4 cells are HEK cells transfected in order to express the human receptors involved in LPS detection process (TLR4, MD-2 and membrane-bound CD14) and an inducible SEAP (secreted embryonic alkaline phosphatase) reporter gene placed under the control of NF-kB and AP-1-transcription factors. Activation of the MyD88-dependent TLR4 pathway promotes the production and secretion of SEAP in the cell culture media, which can be easily quantified.
SEAP levels in cell culture media were quantified after 16 hours as indicator of TLR4 activation. Data were normalized to stimulation with LPS alone and fitted to a sigmoidal 4 parameter logistic equation to obtain dose-effect curves (left panel). […] Briefly, cells were cultured in DMEM high glucose medium supplemented with 10% fetal bovine serum (FBS), 2 mM glutamine, antibiotics and 1 × HEK-Blue Selection (InvivoGen). Cells were detached using a cell scraper, counted and seeded in a 96-well multiwell plate at a density of 4 × 10^4 cells per well. […] For the antagonism evaluation, cells were stimulated with LPS (100 ng/mL, E. coli O55:B5, Sigma-Aldrich) after compounds pre-treatment and incubated for 16 hours as above. The SEAP-containing supernatants were collected and incubated with para-nitrophenyl phosphate (pNPP) for 2−4 h in the dark at room temperature. The wells optical density was determined using a microplate reader (labtech LT-4000) set to 405 nm.

In data set [1] the test system is TLR4 signaling in RAW 264.7-Blue cells. In words: LPS-induced TLR4 signaling in RAW 264.7-Blue cells (SEAP reporter, QUANTI-Blue). Type of data set: cell-based, murine. How it is done:
To characterize the effect of synthetic compounds FP13-17 on cells naturally expressing TLR4, we used the murine macrophage RAW 264.7-Blue cell line, which are murine RAW 264.7 macrophages with chromosomal integration of SEAP reporter construct described in the previous section.
Figure 8 Inhibition of LPS-induced TLR4 signaling in RAW 264.7-Blue cells. […] SEAP reporter levels in the cell supernatant were determined by QuantiBlue Assay 24 h later. Error bars represent the standard deviation of the mean of technical triplicates. The graph is representative of at least three independent experiments.
Murine RAW 264.7-Blue cells (Invivogen) derived from the murine RAW 264.7 macrophages and stably expressing an NF-κB-inducible secreted alkaline phosphatase (SEAP) reporter gene were cultured in Dulbecco’s modified Eagle’s medium (DMEM), supplemented with 10% Fetal bovine serum (FBS), L-Glutamine (2 mM) and sodium pyruvate (0.4 mM), in the presence of selection antibiotic Zeocin (200 μg/mL). E. coli O111:B4 LPS was purchased from Invivogen. Bovine serum albumin (BSA) was purchased from Sigma-Aldrich. Compounds FP13-17 were reconstituted in DMSO/ethanol to provide a 10 mM stock solution. […] C57BL6/J mice were obtained from Janvier. […]
[…] 24 h later cell supernatants were analyzed for SEAP production by the QUANTI-Blue Assay (Invivogen).

Data set [2] has as its system C57BL/6 mice. In words: LPS-induced serum TNFα in mice, compound i.p. The class given is in vivo, mouse. As to conditions: 200 µg i.p., LPS 30 min later, serum after 4 h. The protocol:
To further investigate whether carboxylate-based lipid A mimetics are able to inhibit LPS-induced signaling in vivo, we injected C57BL/6 mice i.p. with 200 µg of compound FP13 followed by the LPS injection 30 min later. […] The reason for this was unclear and we hypothesized poor distribution and absorption of the compound upon i.p. injection.
C57BL/6 mice were injected i.p. with 200 µg FP13. 30 min later, the mice were i.p. injected with 150 µg of Salmonella enterica LPS, or vehicle and PBS as controls. Mice were sacrificed 4 h later and serum was collected. Serum TNF concentration was determined by Luminex-based Bio-Plex Multiplex system. Error bars represent the standard deviation of the mean.

In data set [3] the test system is C57BL/6 mice. In words: LPS-induced lung neutrophilia in mice, intratracheal administration. Type of data set: in vivo, mouse. To be noted: 45 µg i.t. with 1 µg LPS, BAL after 16 h. The protocol:
We therefore also explored the antagonistic capacity of FP13 in a different in vivo model, where LPS and FP13 were both administered locally in the lungs. Intratracheal (i.t.) instillation of LPS is known to cause an acute inflammatory response in mice, characterized by transient infiltration of neutrophils into the airways[57],[58].
PBS and vehicle were administered as controls. Mice were sacrificed 16 h later and neutrophilia in the BAL fluid was measured by flow cytometry. Error bars represent the standard deviation of the mean.

On the set-up of data set [4]: method as in PMID 24339336. To be noted: cited from earlier work.

SMILES strings stand for the structures.

T2 sequence (O00206 24-839, one chain of several): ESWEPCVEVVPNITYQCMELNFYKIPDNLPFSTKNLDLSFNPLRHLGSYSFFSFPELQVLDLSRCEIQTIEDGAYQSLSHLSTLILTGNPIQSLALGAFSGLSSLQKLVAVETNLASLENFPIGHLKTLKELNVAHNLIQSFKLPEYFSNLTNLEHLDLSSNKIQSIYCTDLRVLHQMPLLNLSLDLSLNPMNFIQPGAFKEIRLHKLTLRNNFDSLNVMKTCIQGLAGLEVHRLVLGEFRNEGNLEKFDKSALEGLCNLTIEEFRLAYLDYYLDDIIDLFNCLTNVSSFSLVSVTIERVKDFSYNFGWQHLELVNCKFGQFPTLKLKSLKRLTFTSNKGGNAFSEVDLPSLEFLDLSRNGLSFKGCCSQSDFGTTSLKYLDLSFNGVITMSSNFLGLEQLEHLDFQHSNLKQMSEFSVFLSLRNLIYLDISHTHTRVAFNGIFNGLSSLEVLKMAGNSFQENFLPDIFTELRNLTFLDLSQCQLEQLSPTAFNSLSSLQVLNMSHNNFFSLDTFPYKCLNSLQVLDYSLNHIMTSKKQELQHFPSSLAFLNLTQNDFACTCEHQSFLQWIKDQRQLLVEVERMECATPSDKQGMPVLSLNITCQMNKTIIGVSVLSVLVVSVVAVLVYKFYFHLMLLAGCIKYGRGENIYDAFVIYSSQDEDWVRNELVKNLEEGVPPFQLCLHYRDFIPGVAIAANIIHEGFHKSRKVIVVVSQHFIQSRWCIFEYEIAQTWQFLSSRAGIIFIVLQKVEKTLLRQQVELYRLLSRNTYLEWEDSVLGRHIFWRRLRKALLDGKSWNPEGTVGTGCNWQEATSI

The term Kd denotes a measure of binding affinity in units of concentration. Low values mean a tighter complex, high ones a looser complex. In general, IC50 refers to the concentration at which inhibition is half-maximal. Compound `CCCCCCCC/C=C\CCCCCCCC(=O)N[C@H]1[C@H](OC(=O)CCC(=O)O)O[C@H](CO)[C@@H](OC(=O)CCC(=O)O)[C@@H]1OC(=O)CCCCCCCCCCCCC` [FP15] registered a Kd on human MD-2 (hMD-2) of 14 µM. The IC50 against human TLR4 amounted to 3.5 µM.
In the same order, the values of `CCCCC/C=C\C/C=C\CCCCCCCC(=O)N[C@H]1[C@H](OC(=O)CCC(=O)O)O[C@H](CO)[C@@H](OC(=O)CCC(=O)O)[C@@H]1OC(=O)CCCCCCCCCCCCC` [FP16] are 21 µM and 6.61 µM.
With `CCCCCCCC/C=C\CCCCCCCC(=O)N[C@H]1[C@H](OC(=O)CCC(=O)O)O[C@H](CO)[C@@H](OC(=O)CCC(=O)O)[C@@H]1OC(=O)CCCCCCC/C=C\CCCCCCCC` [FP13], at human MD-2 (hMD-2), the Kd was determined as 9 µM. The compound also displayed an IC50 against human TLR4 of 5.91 µM. The “antagonistic activity in presence of serum” value in data set [1] (DMEM supplemented with 10% FBS) was “completely neutralized”. Further, in data set [1] (serum-free with 4 or 20 mg/mL BSA), the “antagonistic activity in presence of BSA” value was “strongly decreased”. Further, in the data set on C57BL/6 mice [2], the “effect on LPS-induced serum TNFα levels” value was “did not affect”. The “effect on LPS-induced neutrophil infiltration into the airways” value in the data set with C57BL/6 mice [3] is recorded as “failed to suppress”.
For the compound `CCCCCCCCCCCCCC(=O)N[C@H]1[C@@H](OP(=O)(O)O)O[C@H](CO)[C@@H](OP(=O)(O)O)[C@@H]1OC(=O)CCCCCCCCCCCCC` [FP7], the CMC entry in data set [4] is “about 9 µM”.
In the case of `CCCCC/C=C\C/C=C\CCCCCCCC(=O)N[C@H]1[C@H](OC(=O)CCC(=O)O)O[C@H](CO)[C@@H](OC(=O)CCC(=O)O)[C@@H]1OC(=O)CCCCCCC/C=C\C/C=C\CCCCC` [FP14], the Kd at human MD-2 (hMD-2) is 35 µM. The compound also displayed an IC50 on human TLR4 of 4.35 µM.
The like results for `CCCCCCCCCCCCCC(=O)N[C@H]1[C@H](OC(=O)CCC(=O)O)O[C@H](CO)[C@@H](OC(=O)CCC(=O)O)[C@@H]1OC(=O)CCCCCCCCCCCCC` [FP17] were, in that order, 12 µM and 2.7 µM.
